# Source: PubChem BioAssay AID1259407 (Chemical Carcinogenesis Research Information System (CCRIS), 2018)
# Active and inactive are the calls of the source. How the calls were made is not given here.
# Test system: CCRIS mutagenicity, Ames/micronucleus/aberration tests
# Test: CCRIS mutagenicity studies
# [1] = Test System: AMES SALMONELLA TYPHIMURIUM, Strain/Indicator: TA98, Metabolic Activation: NONE, Method: STANDARD PLATE
# [2] = Test System: AMES SALMONELLA TYPHIMURIUM, Strain/Indicator: TA100, Metabolic Activation: NONE, Method: STANDARD PLATE
structure (smiles),measurement,setting,value
C[C@]12C=CC3=C4CCC(=O)C=C4CC[C@H]3[C@@H]1CC[C@@H]2O,mutagenic call,[1],inactive; negative
same,mutagenic call,"Test System: AMES SALMONELLA TYPHIMURIUM, Strain/Indicator: TA98, Metabolic Activation: RAT, LIVER, S-9, AROCLOR 1254 (5%, 30%), Method: PREINCUBATION",inactive; negative
same,mutagenic call,"Test System: AMES SALMONELLA TYPHIMURIUM, Strain/Indicator: TA98, Metabolic Activation: RAT, LIVER, S-9, AROCLOR 1254, Method: STANDARD PLATE",inactive; negative
same,mutagenic call,"Test System: AMES SALMONELLA TYPHIMURIUM, Strain/Indicator: TA98, Metabolic Activation: RAT, LIVER, S-9, Method: STANDARD PLATE",inactive; negative; toxicity at 3000 ug/plate
same,mutagenic call,[2],inactive; negative
same,mutagenic call,"Test System: AMES SALMONELLA TYPHIMURIUM, Strain/Indicator: TA100, Metabolic Activation: RAT, LIVER, S-9, AROCLOR 1254 (5%, 30%), Method: PREINCUBATION",inactive; negative
same,mutagenic call,"Test System: AMES SALMONELLA TYPHIMURIUM, Strain/Indicator: TA100, Metabolic Activation: RAT, LIVER, S-9, AROCLOR 1254, Method: STANDARD PLATE",inactive; negative
same,mutagenic call,"Test System: AMES SALMONELLA TYPHIMURIUM, Strain/Indicator: TA100, Metabolic Activation: RAT, LIVER, S-9, Method: STANDARD PLATE",inactive; negative
same,mutagenic call,"Test System: AMES SALMONELLA TYPHIMURIUM, Strain/Indicator: TA102, Metabolic Activation: RAT, LIVER, S-9, AROCLOR 1254 (5%, 30%), Method: PREINCUBATION",inactive; negative
same,mutagenic call,"Test System: AMES SALMONELLA TYPHIMURIUM, Strain/Indicator: TA1535, Metabolic Activation: RAT, LIVER, S-9, AROCLOR 1254, Method: STANDARD PLATE",inactive; negative
same,mutagenic call,"Test System: AMES SALMONELLA TYPHIMURIUM, Strain/Indicator: TA1535, Metabolic Activation: RAT, LIVER, S-9, Method: STANDARD PLATE",inactive; negative
same,mutagenic call,"Test System: AMES SALMONELLA TYPHIMURIUM, Strain/Indicator: TA1537, Metabolic Activation: RAT, LIVER, S-9, AROCLOR 1254, Method: STANDARD PLATE",inactive; negative
same,mutagenic call,"Test System: AMES SALMONELLA TYPHIMURIUM, Strain/Indicator: TA1537, Metabolic Activation: RAT, LIVER, S-9, Method: STANDARD PLATE",inactive; negative
same,mutagenic call,"Test System: AMES SALMONELLA TYPHIMURIUM, Strain/Indicator: TA1538, Metabolic Activation: RAT, LIVER, S-9, AROCLOR 1254, Method: STANDARD PLATE",inactive; negative
same,mutagenic call,"Test System: AMES SALMONELLA TYPHIMURIUM, Strain/Indicator: TA1538, Metabolic Activation: RAT, LIVER, S-9, Method: STANDARD PLATE",inactive; negative
same,mutagenic call,"Test System: CHINESE HAMSTER V-79, Strain/Indicator: V-79/6-THIOGUANINE, Metabolic Activation: NONE, Method: STANDARD PLATE",inactive; negative
same,mutagenic call,"Test System: CHINESE HAMSTER V-79, Strain/Indicator: V-79/6-THIOGUANINE, Metabolic Activation: RAT, LIVER, S-9, AROCLOR 1254, Method: STANDARD PLATE",inactive; negative
same,mutagenic call,"Test System: CHO/HGPRT, Strain/Indicator: CHO-K1-BH4, Metabolic Activation: NONE, Method: STANDARD PLATE",inactive; negative
same,mutagenic call,"Test System: CHO/HGPRT, Strain/Indicator: CHO-K1-BH4, Metabolic Activation: RAT, LIVER, S-9, AROCLOR 1254, Method: STANDARD PLATE",inactive; negative
O=[N+]([O-])c1cc(-c2cccc([N+](=O)[O-])c2O)ccc1O,mutagenic call,"Test System: AMES SALMONELLA TYPHIMURIUM, Strain/Indicator: TA98, Metabolic Activation: NONE, Method: PREINCUBATION",inactive; negative
Nc1cc([N+](=O)[O-])c(CO)c([N+](=O)[O-])c1,mutagenic call,"End Point: In vitro chromosomal aberrations, Test System: V79 Chinese hamster fibroblasts, Metabolic Activation: None",inactive; negative
same,mutagenic call,"Test System: Ames Salmonella typhimurium, Strain/Indicator: TA98, Metabolic Activation: None, Method: Standard plate",active; positive
same,mutagenic call,"Test System: Ames Salmonella typhimurium, Strain/Indicator: TA98, Metabolic Activation: Rat, Liver, S-9, Method: Standard plate",active; positive
same,mutagenic call,"Test System: Ames Salmonella typhimurium, Strain/Indicator: TA98NR, Metabolic Activation: None, Method: Standard plate","active; positive, ta98nr is the nitroreductase-deficient derivative of ta98."
same,mutagenic call,"Test System: Ames Salmonella typhimurium, Strain/Indicator: TA100, Metabolic Activation: None, Method: Standard plate",active; positive
same,mutagenic call,"Test System: Ames Salmonella typhimurium, Strain/Indicator: TA100, Metabolic Activation: Rat, Liver, S-9, Method: Standard plate",active; positive
Cc1cccc(O)c1N,mutagenic call,"Test System: AMES SALMONELLA TYPHIMURIUM, Strain/Indicator: TA98, Metabolic Activation: HAMSTER LIVER S-9, AROCLOR 1254, Method: STANDARD PLATE",inactive; negative
same,mutagenic call,[1],inactive; negative
same,mutagenic call,"Test System: AMES SALMONELLA TYPHIMURIUM, Strain/Indicator: TA98, Metabolic Activation: RAT LIVER S-9, AROCLOR 1254, Method: STANDARD PLATE",inactive; negative
same,mutagenic call,"Test System: AMES SALMONELLA TYPHIMURIUM, Strain/Indicator: TA100, Metabolic Activation: HAMSTER LIVER S-9, AROCLOR 1254, Method: STANDARD PLATE",inactive; negative
same,mutagenic call,[2],inactive; negative
same,mutagenic call,"Test System: AMES SALMONELLA TYPHIMURIUM, Strain/Indicator: TA100, Metabolic Activation: RAT LIVER S-9, AROCLOR 1254, Method: STANDARD PLATE",inactive; negative
same,mutagenic call,"Test System: AMES SALMONELLA TYPHIMURIUM, Strain/Indicator: TA102, Metabolic Activation: HAMSTER LIVER S-9, AROCLOR 1254, Method: STANDARD PLATE",inactive; negative
same,mutagenic call,"Test System: AMES SALMONELLA TYPHIMURIUM, Strain/Indicator: TA102, Metabolic Activation: NONE, Method: STANDARD PLATE",inactive; negative
same,mutagenic call,"Test System: AMES SALMONELLA TYPHIMURIUM, Strain/Indicator: TA102, Metabolic Activation: RAT LIVER S-9, AROCLOR 1254, Method: STANDARD PLATE",inactive; negative
same,mutagenic call,"Test System: AMES SALMONELLA TYPHIMURIUM, Strain/Indicator: TA1535, Metabolic Activation: HAMSTER LIVER S-9, AROCLOR 1254, Method: STANDARD PLATE",inactive; negative
same,mutagenic call,"Test System: AMES SALMONELLA TYPHIMURIUM, Strain/Indicator: TA1535, Metabolic Activation: NONE, Method: STANDARD PLATE",inactive; negative
same,mutagenic call,"Test System: AMES SALMONELLA TYPHIMURIUM, Strain/Indicator: TA1535, Metabolic Activation: RAT LIVER S-9, AROCLOR 1254, Method: STANDARD PLATE",inactive; negative
same,mutagenic call,"Test System: AMES SALMONELLA TYPHIMURIUM, Strain/Indicator: TA1537, Metabolic Activation: HAMSTER LIVER S-9, AROCLOR 1254, Method: STANDARD PLATE",inactive; negative
same,mutagenic call,"Test System: AMES SALMONELLA TYPHIMURIUM, Strain/Indicator: TA1537, Metabolic Activation: NONE, Method: STANDARD PLATE",inactive; negative
same,mutagenic call,"Test System: AMES SALMONELLA TYPHIMURIUM, Strain/Indicator: TA1537, Metabolic Activation: RAT LIVER S-9, AROCLOR 1254, Method: STANDARD PLATE",inactive; negative
same,mutagenic call,"Test System: MOUSE LYMPHOMA, Strain/Indicator: L5178Y (TK+/TK-), Metabolic Activation: NONE, Method: SUSPENSION/PLATE",active; positive. reevaluation of results: positive
same,mutagenic call,"Test System: MOUSE LYMPHOMA, Strain/Indicator: L5178Y (TK+/TK-), Metabolic Activation: RAT, LIVER, S-9, AROCLOR 1254, Method: SUSPENSION/PLATE",active; positive. reevaluation of results: equivocal
Cc1cc(N=Nc2ccccc2)c(N)cc1N,mutagenic call,"Test System: AMES SALMONELLA TYPHIMURIUM, Strain/Indicator: TA100, Metabolic Activation: HUMAN, LIVER, S-9, Method: PREINCUBATION",inactive; negative
same,mutagenic call,"Test System: AMES SALMONELLA TYPHIMURIUM, Strain/Indicator: TA100, Metabolic Activation: RAT, LIVER, HEPATOCYTES, Method: PREINCUBATION",inactive; negative
same,mutagenic call,"Test System: AMES SALMONELLA TYPHIMURIUM, Strain/Indicator: TA100, Metabolic Activation: RAT, LIVER, S-9, BETA-NAPHTHOFLAVONE, Method: PREINCUBATION",active; positive
same,mutagenic call,"Test System: AMES SALMONELLA TYPHIMURIUM, Strain/Indicator: TA100, Metabolic Activation: RAT, LIVER, S-9, PHENOBARBITAL, Method: PREINCUBATION",active; positive
same,mutagenic call,"Test System: AMES SALMONELLA TYPHIMURIUM, Strain/Indicator: TA100, Metabolic Activation: RAT, LIVER, S-9, Method: PREINCUBATION",active; positive
same,mutagenic call,"Test System: UDS RODENT HEPATOCYTES, Strain/Indicator: THY INCORP, Metabolic Activation: NONE, Method: AUTORADIOGRAPHY",active; positive
Cn1c(N)nc2cc(C#N)ccc21,mutagenic call,"Test System: AMES SALMONELLA TYPHIMURIUM, Strain/Indicator: TA98, Metabolic Activation: RAT, LIVER, S-9, AROCLOR 1254, Method: PREINCUBATION",active; positive
same,mutagenic call,"Test System: AMES SALMONELLA TYPHIMURIUM, Strain/Indicator: TA100, Metabolic Activation: RAT, LIVER, S-9, AROCLOR 1254, Method: PREINCUBATION",inactive; negative
